Assay results: US20140162968A1, “METHOD FOR SCREENING OF AGENT FOR TREATING OR PREVENTING OBESITY” (priority 2011, published 2014)

Key:
[1] = system: lipase in the small intestines; settings: background statement; cited from earlier work
[2] = Body weight change and daily food uptake in rats orally administered anthocyanin for 40 days; format: in vivo, rat; settings: for weight increase: male Sprague-Dawley rats, control 79.33 g; for weight increase / weight at end of period: 40 days; for weight at end of period: control 116.33 g
Method: For use in assay for the preventive and therapeutic effect of anthocyanin on obesity, male Sprague-Dawley rats, 60 days old (the Experimental Animal Breeding Center of the Gyeongsang National University, Jinju, Korea)) were divided groups of four which were then orally administered with anthocyanin at a dose of 6 mg and 24 mg, respectively, or not administered with anthocyanin for a control. They were maintained for 40 days in a temperature-controlled condition with lighting 06:00-20:00. While being maintained, the rats in each group were monitored for weight change and daily food uptake, and the results are shown in FIG. 1.

[3] = system: epididymal white adipose tissue; assay: Epididymal white adipose tissue adipocyte number per unit area (hematoxylin-eosin staining); format: in vivo, rat; settings: epididymal WAT, 40 days, control 18.75
Method: For hematoxylin-eosin staining, an epididymal white adipose tissue (WAT) was fixed at 4° C. for 72 hrs in ice-chilled 1× PBS containing 4% para-formaldehyde, and immersed at 4° C. for 72 hrs in 20% sucrose sucrose phosphate buffer for cryoprotection. The fixed tissue was frozen with O.C.T compound (A. O. USA), and 10 μm coronal sections were made in coronal planes (Leica cryostat CM 3050, Germany). The sections were mounted on a probe-on, positively charged slide at room temperature and stored at −70° C. until use.
The animals bred as in Example 1 were collectively sacrificed at 10:00 AM 40 days after the oral administration, and epididymal white adipose tissue (WAT) was excised from each sacrificed animal and used for comparison of obesity. The epididymal WAT was fixed at 4° C. for 72 hrs in ice-chilled 1× PBS containing 4% para-formaldehyde, and immersed at 4° C. for 72 hrs in a 20% sucrose phosphate buffer for cryoprotection. The fixed tissue was frozen with O.C.T compound (A. O. USA), and 10 μm coronal sections were made in coronal planes (Leica cryostat CM 3050, Germany). The sections were mounted on probe-on, positively charged slides and thawed at room temperature for 3 hrs. […] Cover slips were mounted on the slides which were observed under a […] at 400× magnification.

GABAB receptor = assay: Expression of GABAB receptor in the hypothalamus by Western blotting; format: in vivo, rat; settings: rats administered anthocyanin orally, 40 days, versus control; Western blot densitometry
Method: To examine the effect of an obesity prevention and treatment agent on the expression of GABAB receptor, the animals maintained as in Example 1 were collectively sacrificed at 10:00 AM 40 days after the oral administration, and the hypothalamus was excised from each of them. The hypothalamic sample was homogenized in 0.2 M PBS containing a protease inhibitor cocktail. Protein levels were measured using a Bio-Rad protein analysis solution, and after two rounds of ultracentrifugation at 4° C. and 12,000 rpm for 20 min, the supernatants containing proteins were separated. […] This membrane was blocked with 5% (v/v) skim milk to reduce non-specific binding, and incubated with a primary goat anti-GABABR1 antibody (1:200; Santa Cruz Biotechnology, Santa Cruz, Calif., USA) and an anti-beta-actin antibody for quantitative comparison, followed by immune reaction with a secondary HRP (horseradish peroxidase)-conjugated anti-goat and anti-rabbit IgG (1:1000; Santa Cruz Biotechnology, Santa Cruz, Calif., USA). Protein levels were determined by chemiluminescence using ECL-detecting reagent (Amersham Pharmacia Biotech, Western blotting detection reagents). Western blots on the X-ray film were analyzed by densitometry using computer-based Sigma Gel (SPSS Inc. Chicago, USA), and the results are shown in FIG. 3.

neuropeptide Y = assay: Expression of neuropeptide Y in the hypothalamus by Western blotting; format: in vivo, rat; settings: oral anthocyanin 24 mg, 40 days, versus control; Western blot
PKA-α = assay: Expression of PKA-α in the hypothalamus by Western blotting; format: in vivo, rat; settings: oral anthocyanin 24 mg, 40 days, versus control; Western blot
p-CREB = assay: Expression of p-CREB in the hypothalamus by Western blotting; format: in vivo, rat; settings: oral anthocyanin 24 mg, 40 days, versus control; Western blot

| Molecule | reduction of fat absorption [1] | weight increase ([2]; oral anthocyanin 6 mg) [g] | weight increase ([2]; oral anthocyanin 24 mg) [g] | weight at end of period ([2]; oral anthocyanin 6 mg, from 32.33 g) [g] | weight at end of period ([2]; oral anthocyanin 24 mg, from 28.33 g) [g] | daily food uptake ([2]; oral anthocyanin 24 mg, control 20.03 g) [g] | number of adipocytes per unit area ([3]; oral anthocyanin 6 mg) [cells/250 mm^2] | number of adipocytes per unit area ([3]; oral anthocyanin 24 mg) [cells/250 mm^2] | expression level of GABAB receptor in the hypothalamus (GABAB receptor) | expression level of neuropeptide Y in the hypothalamus (neuropeptide Y) | expression level of PKA-α in the hypothalamus (PKA-α) | expression level of p-CREB in the hypothalamus (p-CREB) |
| --- | --- | --- | --- | --- | --- | --- | --- | --- | --- | --- | --- | --- |
| CCCCCCCCCCC[C@@H](C[C@@H]1OC(=O)[C@H]1CCCCCC)OC(=O)[C@H](CC(C)C)NC=O [Orlistat] | about 30% |  |  |  |  |  |  |  |  |  |  |  |
| anthocyanin |  | 69 | 69.67 | 101.33 | 98 | 16.43 | 22.47 | 22.8 | increased | decreased | decrease | increase |
